One assay has as its target T1, human orexin-1 receptor (Homo sapiens, UniProt O43613).
T1 construct: expressed in transfected cells; host or cells: Chinese hamster ovary (CHO) cells
T1 sequence (O43613 1-425): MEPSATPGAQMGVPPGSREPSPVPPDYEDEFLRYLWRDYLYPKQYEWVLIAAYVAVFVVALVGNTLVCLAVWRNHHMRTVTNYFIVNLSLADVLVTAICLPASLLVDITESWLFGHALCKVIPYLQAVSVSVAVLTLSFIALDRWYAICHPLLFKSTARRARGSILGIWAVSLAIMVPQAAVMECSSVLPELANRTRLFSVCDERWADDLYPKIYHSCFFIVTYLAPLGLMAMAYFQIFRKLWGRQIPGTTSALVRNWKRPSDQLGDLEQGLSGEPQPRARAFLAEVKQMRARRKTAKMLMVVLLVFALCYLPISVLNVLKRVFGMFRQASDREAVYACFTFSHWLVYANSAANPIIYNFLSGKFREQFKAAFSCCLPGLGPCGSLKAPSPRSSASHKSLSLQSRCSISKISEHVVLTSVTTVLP
Briefly: FLIPR calcium assay of orexin receptor antagonistic activity, CHO cells expressing human orexin-1 receptor. Format: cell-based. The note with it: 3 nM orexin-A as agonist; not normalized; *2/*3 = geometric mean of n = 2/3 values; read-out: OX1 IC50. As to the method: (§1) The orexin receptor antagonistic activity of the compounds of formula (I) is determined in accordance with the following experimental method.
(§2) Chinese hamster ovary (CHO) cells expressing the human orexin-1 receptor and the human orexin-2 receptor, respectively, are grown in culture medium (Ham F-12 with L-Glutamine) containing 300 μg/ml G418, […] penicillin, 100 μg/ml streptomycin and 10% heat inactivated fetal calf serum (FCS). The cells are seeded at 20′000 cells/well into 384-well black clear bottom sterile plates (Greiner). The seeded plates are incubated overnight at 37° C. in 5% CO2.
(§3) Human orexin-A as an agonist is prepared as 1 mM stock solution in MeOH:water (1:1), diluted in HBSS containing 0.1% bovine serum albumin (BSA), NaHCO3: 0.375 g/l and 20 mM HEPES for use in the assay at a final concentration of 3 nM.
(§4) Antagonists are prepared as 10 mM stock solution in DMSO, then diluted in 384-well plates using DMSO followed by a transfer of the dilutions into in HBSS containing 0.1% bovine serum albumin (BSA), NaHCO3: 0.375 g/l and 20 mM HEPES. On the day of the assay, 50 μl of staining buffer (HBSS containing 1% FCS, 20 mM HEPES, NaHCO3: 0.375 g/l, 5 mM probenecid (Sigma) and 3 μM of the fluorescent calcium indicator fluo-4 AM (1 mM stock solution in DMSO, containing 10% pluronic) is added to each well. The 384-well cell-plates are incubated for 50 min at 37° C. in 5% CO2 followed by equilibration at rt for 30-120 min before measurement.
(§5) Within the Fluorescent Imaging Plate Reader (FLIPR Tetra, Molecular Devices), antagonists are added to the plate in a volume of 10 μl/well, incubated for 10 min and finally […] of agonist is added. Fluorescence is measured for each well at 1 second intervals, and the height of each fluorescence peak is compared to the height of the fluorescence peak induced by 3 nM orexin-A with vehicle in place of antagonist. For each antagonist, the IC50 value (the concentration of compound needed to inhibit 50% of the agonistic response) is determined and may be normalized using the obtained IC50 value of a on-plate reference compound (normalized values in Table 1 are indicated by an asterisk *). Optimized conditions were achieved by adjustment of pipetting speed and cell splitting regime. The calculated IC50 values of the compounds may fluctuate depending on the daily cellular assay performance. Fluctuations of this kind are known to those skilled in the art.

For the next assay, the target named is T2, human orexin-2 receptor (Homo sapiens, UniProt O43614).
T2 construct: expressed in transfected cells; host or cells: Chinese hamster ovary (CHO) cells
T2 sequence (O43614 1-444): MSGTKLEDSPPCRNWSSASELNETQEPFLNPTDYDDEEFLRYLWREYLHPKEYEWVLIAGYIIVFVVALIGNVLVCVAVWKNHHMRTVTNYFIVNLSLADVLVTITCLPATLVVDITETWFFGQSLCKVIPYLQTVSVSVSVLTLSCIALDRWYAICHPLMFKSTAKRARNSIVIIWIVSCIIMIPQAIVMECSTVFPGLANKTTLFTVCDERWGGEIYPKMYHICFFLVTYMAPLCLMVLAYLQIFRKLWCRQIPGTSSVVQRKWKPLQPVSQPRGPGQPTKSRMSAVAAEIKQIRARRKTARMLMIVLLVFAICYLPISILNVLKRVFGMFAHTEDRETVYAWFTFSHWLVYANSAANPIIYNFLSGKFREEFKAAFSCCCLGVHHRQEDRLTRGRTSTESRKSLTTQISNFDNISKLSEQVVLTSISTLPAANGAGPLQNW
Kind of assay: FLIPR calcium assay of orexin receptor antagonistic activity, CHO cells expressing human orexin-2 receptor. Format: cell-based. The following applies: read-out: OX2 IC50. As to the method: as §1, §2, §3, §4, §5

Where [1] appears, read: 3 nM orexin-A as agonist, not normalized, *2/*3 = geometric mean of n = 2/3 values.

Read-outs that look alike come from different tables or passages of the source.

A word on the IC50: it is the concentration that gives 50% inhibition. Consider `Cc1cccc(-c2sc(C)nc2C(=O)N2CCSC2CNC(=O)c2ccn3ccsc23)c1` (racemic) [Example 4, rac-Pyrrolo[2,1-b]thiazole-7-carboxylic acid [3-(2-methyl-5-m-tolyl-thiazole-4-carbonyl)-thiazolidin-2-ylmethyl]-amide], for which the IC50 at human orexin-1 receptor and at human orexin-2 receptor (setting [1]) was 2 nM each time.
Take `Cc1cccc(-c2sc(C)nc2C(=O)N2CCSC2CNC(=O)c2ccc(C(F)(F)F)c3oc(C)cc23)c1` (racemic) [Example 11, rac-2-Methyl-7-trifluoromethyl-benzofuran-4-carboxylic acid [3-(2-methyl-5-m-tolyl-thiazole-4-carbonyl)-thiazolidin-2-ylmethyl]-amide]: the half-inhibitory concentration (IC50) on human orexin-1 receptor amounted to 17 nM; at human orexin-2 receptor (setting [1]), 63 nM.
For `Cc1cccc(-c2sc(C)nc2C(=O)N2CCSC2CNC(=O)c2cccc3ocnc23)c1` (racemic) [Example 17, rac-Benzooxazole-4-carboxylic acid [3-(2-methyl-5-m-tolyl-thiazole-4-carbonyl)thiazolidin-2-ylmethyl]-amide], in that order: 4 nM and 6 nM.
On to `Cc1nc(-c2cccc(Cl)c2)c(C(=O)N2CCSC2CNC(=O)c2cccc3c2CCO3)s1` (racemic) [Example 29, rac-2,3-Dihydro-benzofuran-4-carboxylic acid {3-[4-(3-chloro-phenyl)-2-methyl-thiazole-5-carbonyl]-thiazolidin-2-ylmethyl}-amide], for which the IC50 worked out at 3 nM on human orexin-1 receptor and 7 nM on human orexin-2 receptor (setting [1]).
For `COc1cccc(-c2nc(C)sc2C(=O)N2CCSC2CNC(=O)c2cccc3c2CCO3)c1` (racemic) [Example 32, rac-2,3-Dihydro-benzofuran-4-carboxylic acid {3-[4-(3-methoxy-phenyl)-2-methyl-thiazole-5-carbonyl]-thiazolidin-2-ylmethyl}-amide], in that order: 4 nM and 5 nM.
`Cc1nc(-c2ccc(F)cc2)c(C(=O)N2CCSC2CNC(=O)c2nn(C)c3ccccc23)s1` (racemic) [Example 39, rac-1-Methyl-1H-indazole-3-carboxylic acid {3-[4-(4-fluoro-phenyl)-2-methyl-thiazole-5-carbonyl]-thiazolidin-2-ylmethyl}-amide]: the half-maximal inhibitory concentration (IC50) was 8 nM on human orexin-1 receptor and 86 nM on human orexin-2 receptor (setting [1]).
For `Cc1ccc(-c2nc(C)sc2C(=O)N2CCSC2CNC(=O)c2cccc3c2OCCO3)cc1` (racemic) [Example 42, rac-2,3-Dihydro-benzo[1,4]dioxine-5-carboxylic acid [3-(2-methyl-4-p-tolyl-thiazole-5-carbonyl)-thiazolidin-2-ylmethyl]-amide], in that order: 10 nM and 31 nM.
Turning to `Cc1nc(-c2cccc(C(F)(F)F)c2)c(C(=O)N2CCSC2CNC(=O)c2nn(C)c3ccccc23)s1` (racemic) [Example 50, rac-1-Methyl-1H-indazole-3-carboxylic acid {3-[2-methyl-4-(3-trifluoromethyl-phenyl)-thiazole-5-carbonyl]-thiazolidin-2-ylmethyl}-amide], the values for the IC50 at human orexin-1 receptor and on human orexin-2 receptor (setting [1]) were 7 nM and 43 nM, respectively.
For `Cc1nc(C(=O)N2CCSC2CNC(=O)c2cccc3c2OCCO3)c(-c2ccccc2)s1` (racemic) [Example 57, rac-2,3-Dihydro-benzo[1,4]dioxine-5-carboxylic acid [3-(2-methyl-5-phenyl-thiazole-4-carbonyl)-thiazolidin-2-ylmethyl]-amide], in that order: 4 nM and 10 nM.
`Cc1nc(C(=O)N2CCSC2CNC(=O)c2nn(C)c3ccccc23)c(-c2ccc(C(F)(F)F)cc2)s1` (racemic) [Example 61, rac-1-Methyl-1H-indazole-3-carboxylic acid {3-[2-methyl-5-(4-trifluoromethyl-phenyl)-thiazole-4-carbonyl]-thiazolidin-2-ylmethyl}-amide]: the results for the IC50 on human orexin-1 receptor and at human orexin-2 receptor (setting [1]) were 16 nM and 28 nM, respectively.
For `Cc1ccc(-c2ccccc2C(=O)N2CCSC2CNC(=O)c2cccc3ncsc23)cc1C` (racemic) [Example 72, rac-Benzothiazole-7-carboxylic acid [3-(3′,4′-dimethyl-biphenyl-2-carbonyl)-thiazolidin-2-ylmethyl]-amide], in that order: 12 nM and 10 nM.
For `Cc1nc(C(=O)N2CCSC2CNC(=O)c2cccc3c2CCO3)c(-c2ccc(F)cc2)s1` (racemic) [Example 77, rac-2,3-Dihydro-benzofuran-4-carboxylic acid {3-[5-(4-fluoro-phenyl)-2-methyl-thiazole-4-carbonyl]-thiazolidin-2-ylmethyl}-amide], in that order: 4 nM and 4 nM.
For `Cc1cccc(-c2oc(C)nc2C(=O)N2CCSC2CNC(=O)c2cccc3ncsc23)c1` (racemic) [Example 83, rac-Benzothiazole-7-carboxylic acid [3-(2-methyl-5-m-tolyl-oxazole-4-carbonyl)-thiazolidin-2-ylmethyl]-amide], in that order: 14 nM and 11 nM.
As to `Cc1nc(C(=O)N2CCSC2CNC(=O)c2cccc3ncsc23)c(-c2ccccc2)o1` (racemic) [Example 88, rac-Benzothiazole-7-carboxylic acid [3-(2-methyl-5-phenyl-oxazole-4-carbonyl)-thiazolidin-2-ylmethyl]-amide], the results for the IC50 at human orexin-1 receptor and on human orexin-2 receptor (setting [1]) were 4 nM and 7 nM, respectively.
On to `Cc1nc(C(=O)N2CCSC2CNC(=O)c2cccc3c2OCCO3)c(-c2cccc(F)c2)o1` (racemic) [Example 95, rac-2,3-Dihydro-benzo[1,4]dioxine-5-carboxylic acid {3-[5-(3-fluoro-phenyl)-2-methyl-oxazole-4-carbonyl]-thiazolidin-2-ylmethyl}-amide], for which the IC50 amounted to 23 nM at human orexin-1 receptor and 68 nM on human orexin-2 receptor (setting [1]).
`COc1cccc(-c2oc(C)nc2C(=O)N2CCSC2CNC(=O)c2cccc3ncsc23)c1` (racemic) [Example 104, rac-Benzothiazole-7-carboxylic acid {3-[5-(3-methoxy-phenyl)-2-methyl-oxazole-4-carbonyl]-thiazolidin-2-ylmethyl}-amide]: the IC50 on human orexin-1 receptor came to 7 nM; on human orexin-2 receptor (setting [1]), 8 nM.
For `Cc1cccc(-c2sccc2C(=O)N2CCSC2CNC(=O)c2cccc3ncsc23)c1` (racemic) [Example 109, rac-Benzothiazole-7-carboxylic acid [3-(2-m-tolyl-thiophene-3-carbonyl)-thiazolidin-2-ylmethyl]-amide], in that order: 7 nM and 10 nM.
In the case of `COc1cccc(-c2nccnc2C(=O)N2CCSC2CNC(=O)c2cccc3ncsc23)c1` (racemic) [Example 196, rac-Benzothiazole-7-carboxylic acid {3-[3-(3-methoxy-phenyl)-pyrazine-2-carbonyl]-thiazolidin-2-ylmethyl}-amide], at human orexin-2 receptor, the IC50 worked out at 3 nM.

These data come from patent US20110105491A1, “THIAZOLIDINE COMPOUNDS AS OREXIN RECEPTOR ANTAGONISTS” (priority 2008, published 2011).
